Calls of active or inactive are those of the source. The calls are words filed in the database; no cut-off is given here.
What was measured:
[1] = target: T1, Protein tyrosine phosphatase type IVA 3 (Homo sapiens, UniProt O75365); assay: Inhibition of human His6-tagged full length PRL3 assessed as inhibition of DiFMUP dephosphorylation at 5 ug/ml relative to control
[2] = target: T1, Protein tyrosine phosphatase type IVA 3; assay: Inhibition of PRL3 in human DLD1 cells assessed as increase in phospho-ezrin level at 20 uM by immunoblot analysis relative to control; type: cell-based; settings: DLD-1
DLD-1 = assay: Antiinvasive activity against human DLD1 cells overexpressing PRL3 assessed as increase in E-cadherin expression at 10 to 50 uM after 24 hrs by immunoblot analysis; type: functional, cell-based
[3] = target: T1, Protein tyrosine phosphatase type IVA 3; assay: Inhibition of human His6-tagged full length PRL3 assessed as inhibition of DiFMUP dephosphorylation
[4] = target: T1, Protein tyrosine phosphatase type IVA 3; assay: Inhibition of PRL3 in human DLD1 cells assessed as increase in phospho-KRT8 level at 10 to 20 uM by immunoblot analysis; type: cell-based; settings: DLD-1
[5] = target: T1, Protein tyrosine phosphatase type IVA 3; assay: Inhibition of His6-tagged full length human PRL3 using DiFMUP as substrate at 5 uM relative to control

T1 sequence (O75365 whole entry): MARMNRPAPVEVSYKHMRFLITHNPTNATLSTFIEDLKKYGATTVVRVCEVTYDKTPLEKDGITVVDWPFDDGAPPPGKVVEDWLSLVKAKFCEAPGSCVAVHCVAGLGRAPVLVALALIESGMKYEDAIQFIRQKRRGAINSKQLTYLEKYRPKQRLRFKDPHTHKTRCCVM

- inhibition [1]: 78.8%
- fold change (FC) [2]: > 3
- IC50 [3]: 0.8 µM
- inhibition [3]: Dose-dependent effect
- inhibition [4]: Active
- inhibition [5]: 73%
SMILES: COc1ccccc1COc1ccccc1/C=C/C=C1\SC(=S)NC1=O
- Activity (DLD-1): Active
